Experiments:
[1] = Dentinal tubule plugging by lanthanide salt solutions on etched dentine discs (SEM, backscattered SEM, EDX); set-up: species or system human; details: for presence of the lanthanide by EDX: energy dispersive X-ray microanalysis of treated dentine; for blockage or plugging of the tubules (SEM appearance) / deposits on / coverage of the dentinal surface: solution in water; for blockage or plugging of the tubules (SEM appearance) / deposits on / coverage of the dentinal surface / depth of penetration within the tubules: 5 to 10 minutes on disc; for depth of penetration within the tubules: 4% to 5% by weight solution in water; for depth of penetration within the tubules / penetration of / deposits within the tubules (qualitative): SEM; for penetration of / deposits within the tubules (qualitative): in water
Text: We also assessed other lanthanide compounds, as hereinafter discussed.
For each of the lanthanide salts, caries-free surgically-extracted human molar teeth were cleaned of organic material and, after removal of the crown, sectioned mesio-distally to provide one to two 1-mm dentine discs which were used in the experiment immediately. […] A solution containing a respective one of the above-mentioned lanthanide salts in a concentration of 4% to 5% by weight in the solvent was placed on or in contact with the discs respectively for 5 to 10 minutes before rinsing under flowing tap water. These treated discs were dried completely and then split using pliers, this helping to expose the tubular area for observation of depth of penetration. Specimens were then carbon-coated before examination under SEM (scanning electron microscope). The same procedure was used for each of the other lanthanide compounds hereinafter discussed.
When observed in a backscattered electron beam, dense materials appear as high contrast (bright areas) material relative to the background material (tooth structure). Lanthanides in general have greater density compared to the hydroxyapatite present in the tooth. Thus, in a backscattered electron beam, the lanthanides appear as bright areas due to their high density compared to the background.

[2] = pH of solution or formulation; assay type: physicochemical; details: solution as applied to dentin
Text: If the solution applied to the dentin is too acidic, for example, lower than 5.5, it will demineralize and thereby undesirably weaken the dentin. If the solution applied to the dentin is too basic, for example, in excess of 7.5, it will undesirably form a lot of calculus. An ideal pH for the dentin treatment solution is considered to be about 6 to 7, preferably about 6.6 to 7. Such a pH is believed to be important not only to prevent de-mineralization but also to aid in re-mineralization of dentin surfaces. Therefore, in accordance with the present invention, the dentin treatment solution is formulated to have a pH of about 6 to 7, preferably about 6.6 to 7. […] The formulation with the addition of the insoluble oxide forms on the surface of the dentin or other tooth surface a protective coat that keeps the pH constant to maintain the tooth integrity and protect its surface from, for example, routinely used acidic beverages, protection of dental restorations, and microleakage protection (protection from bacterial leakage and leakage associated with restorative materials) as well as for re-mineralization. The insoluble oxide may include other insoluble substances providing a pH of about 6 to 7 in the dentin treatment solution and on the dentin surfaces, for example, amphoteric oxides such as aluminum oxide and zinc oxide. […]

[3] = Text: For the purposes of this specification and the claims, the term “soluble” refers to a characteristic of a salt of dissolving in water (or other solvent in which the salt is placed) to the extent that there is substantially no precipitation or settling out of material.

O.O.O.O.O.O.O.[Ce+3].[Cl-].[Cl-].[Cl-] [cerium chloride, cerium chloride heptahydrate]
presence of the lanthanide by EDX [1]: confirmed
blockage or plugging of the tubules (SEM appearance) [1]: substantially complete blockage or plugging of the tubules
deposits on / coverage of the dentinal surface [1]: cover substantially the dentinal surface

O.O.O.O.O.O.[Cl-].[Cl-].[Cl-].[Gd+3] [gadolinium chloride, gadolinium chloride hexahydrate]
presence of the lanthanide by EDX [1]: confirmed
blockage or plugging of the tubules (SEM appearance) [1]: substantially complete blockage or plugging of the tubules
deposits on / coverage of the dentinal surface [1]: cover substantially the dentinal surface

O.O.O.O.O.O.O=[N+]([O-])[O-].O=[N+]([O-])[O-].O=[N+]([O-])[O-].[Gd+3] [gadolinium nitrate, gadolinium nitrate hexahydrate]
depth of penetration within the tubules [1]: up to 5 microns
presence of the lanthanide by EDX [1]: confirmed
blockage or plugging of the tubules (SEM appearance) [1]: substantially complete blockage or plugging of the tubules
deposits on / coverage of the dentinal surface [1]: substantially covering the dentinal surface
pH of solution [2]: about 4.3

O=C([O-])[O-].O=C([O-])[O-].O=C([O-])[O-].[La+3].[La+3] [lanthanum carbonate]
penetration of / deposits within the tubules (qualitative) [1]: poor penetration of the tubules
blockage or plugging of the tubules (SEM appearance) [1]: no plugging observed
deposits on / coverage of the dentinal surface [1]: no dentin surface deposits were observed

O.O.O.O.O.O.O.[Cl-].[Cl-].[Cl-].[La+3] [lanthanum chloride, lanthanum chloride heptahydrate]
depth of penetration within the tubules [1]: up to 12 microns
presence of the lanthanide by EDX [1]: confirmed
blockage or plugging of the tubules (SEM appearance) [1]: substantially complete blockage or plugging of the tubules
deposits on / coverage of the dentinal surface [1]: cover some of the surface

[La+3].[OH-].[OH-].[OH-] [lanthanum hydroxide]
solubility in water [3]: not being soluble in water
penetration of / deposits within the tubules (qualitative) [1]: poor penetration of the tubules
blockage or plugging of the tubules (SEM appearance) [1]: no plugging observed
deposits on / coverage of the dentinal surface [1]: no dentin surface deposits were observed

O=[N+]([O-])[O-].[K+] [potassium nitrate, reference compound]
penetration of / deposits within the tubules (qualitative) [1]: little or no deposits within the tubules
deposits on / coverage of the dentinal surface [1]: considerable deposits on the surface

O=C([O-])C(=O)[O-].[K+].[K+] [potassium oxalate, reference compound]
depth of penetration within the tubules [1]: 3 to 4 microns
blockage or plugging of the tubules (SEM appearance) [1]: formed crystals that appear to block the tubules
deposits on / coverage of the dentinal surface [1]: a substantial amount of potassium oxalate was deposited on the dentin surface
pH of solution [2]: about 2

O.O.O.O.O.O.[Cl][Sm]([Cl])[Cl] [samarium chloride, samarium chloride hexahydrate]
presence of the lanthanide by EDX [1]: confirmed
blockage or plugging of the tubules (SEM appearance) [1]: substantially complete blockage or plugging of the tubules
deposits on / coverage of the dentinal surface [1]: cover substantially the dentinal surface
